Test results as given in patent publication US6500610B1, “Methods for identifying compounds for inhibiting of neoplastic lesions, and pharmaceutical compositions containing such compounds” (Cell Pathways, INC, priority 1997, dated 2002).
Read-outs that look alike come from different tables or passages of the source. Values belong to the compound of their own block, whether it stands above or below them.

Legend:
HT-29 cells = assay: Growth inhibition, SRB assay, HT-29; format: cell-based, human
[1] = test system: cGMP PDE from human colon HT-29 cultured tumor cells; assay: cGMP PDE inhibition assay; format: biochemical
[2] = test system: SW-480 colon adenocarcinoma cells
[3] = molecular target: T1, cyclooxygenase (Type 1), COX-I (Ovis aries, UniProt P05979); assay: COX inhibition assay, purified cyclooxygenase
T1 sequence (P05979 25-600): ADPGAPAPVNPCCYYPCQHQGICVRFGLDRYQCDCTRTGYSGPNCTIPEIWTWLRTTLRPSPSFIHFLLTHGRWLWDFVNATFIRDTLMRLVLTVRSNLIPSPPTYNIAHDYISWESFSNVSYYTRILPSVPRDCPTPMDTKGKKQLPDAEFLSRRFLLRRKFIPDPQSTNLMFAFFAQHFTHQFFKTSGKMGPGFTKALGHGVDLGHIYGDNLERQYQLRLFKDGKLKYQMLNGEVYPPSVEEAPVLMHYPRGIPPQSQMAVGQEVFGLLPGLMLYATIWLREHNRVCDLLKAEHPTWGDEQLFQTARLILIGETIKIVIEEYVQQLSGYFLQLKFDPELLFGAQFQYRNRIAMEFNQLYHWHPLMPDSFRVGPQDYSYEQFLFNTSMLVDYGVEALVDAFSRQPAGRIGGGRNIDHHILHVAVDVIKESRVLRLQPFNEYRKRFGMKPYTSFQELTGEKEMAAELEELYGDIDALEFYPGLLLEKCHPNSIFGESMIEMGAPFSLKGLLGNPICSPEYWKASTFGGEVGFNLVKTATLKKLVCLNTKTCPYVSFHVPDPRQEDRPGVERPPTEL

[4] = test system: SW-480 colon adenocarcinoma cells; assay: Apoptosis fold induction / DNA fragmentation protocol
[5] = molecular target: T2, cGMP binding sites of the GST-cGB-PDE5 Protein (Homo sapiens, UniProt O76074); assay: cGMP binding assay with GST-cGB-PDE5 fusion protein; settings: 3H-cGMP 2 μM
T2 construct: made in house; host or cells: E. coli BL21 (DE3)

[6] = molecular target: T3, novel cGMP-specific PDE (Peak B) from SW480 cells (Homo sapiens, UniProt O00408); assay: cGMP hydrolysis inhibition, novel PDE peak B (Section IA) from SW480; format: biochemical; settings: peak B from SW480, FPLC, 0.25 μM cGMP
T3 construct: IC50 Peak B (μM)

[7] = test system: novel Peak B from LnCAP prostate cancer cell line; assay: cGMP PDE activity of peak B from LnCAP; format: biochemical; settings: 0.25 μM cGMP
Procedure: (§1) The novel Peak B was also isolated from two other neoplastic cell lines, a breast cancer cell line, HTB-26 and a prostate cancer cell line, LnCAP by a procedure similar to the one above used to isolate it from SW480. The protocol was modified in several respects. To provide even greater reproducibility to allow comparison of different cell lines, a Pharmacia AKTA FPLC was used to control sample loading and elution on an 18 mL DEAE TrisAcryl M column. SW840 was run by this same procedure multiple times to provide a reference of peak B. 200-400 million cells of SW480 were used for the profiles. 70 million cells of LnCAP were used for a profile (see FIGS. 22 and 23), and in a separate experiment 32 million cells of HTB-26 were used for a profile (see FIGS. 20 and 21). After re-suspending cells in homogenization buffer, samples were manually homogenized. FPLC buffer A was 8 mM TRIS-acetate, 5 mM Mg acetate, 0.1 mM EDTA, pH 7.5 and buffer B was 8 mM TRIS-acetate, 5 mM Mg acetate, 0.1 mM EDTA, 1 M Na acetate, pH 7.5. Supernatants were loaded onto the column at 1 mL per minute, followed by a wash with 60 mL buffer A at 1 mL per minute. A gradient was run from 0-15% buffer B in 60 mL, 15-50% buffer B in 60 mL, and 50-100% buffer B in 16 mL. During the gradient 1.5 mL fractions were collected.

[8] = test system: novel Peak B from HTB-26 breast cancer cell line; assay: cGMP PDE activity of peak B from HTB-26; format: biochemical; settings: peak B from HTB-26, 0.25 μM cGMP
Procedure: as §1

patients = assay: Safety evaluation in exisulind clinical trials; format: in vivo
Procedure: In these exisulind trials and several others involving the drug in other indications, safety was evaluated by monitoring adverse events (AEs), clinical laboratory tests (hematology, serum chemistry, and urinalysis), vital signs (blood pressure, pulse rate, respiratory rate, temperature, and weight), physical examination, and upper endoscopy.

[9] = test system: protein kinase G (PKG) activity in HCT116 colon cancer cells; assay: PKG activity assay of lysates of drug-treated HCT116 cells; format: cell-based
Excerpt: To test the effect of cGMP-specific PDE inhibition on neoplasia containing the β-catenin mutation, HCT116 colon cancer cells were employed. HCT116 is known to contain the β-catenin mutation, but is known not to contain the APC mutation.
The same procedure is used to grow the HCT116 cells as is used in the SW480 procedure described above. In this experiment, only exisulind and controls were used.

β-catenin in SW480 cells = assay: Western blot of β-catenin in SW480 cells; format: cell-based, human; settings: SW480, 200, 400 or 600 μM, 48 hours
Procedure: SW480 cells treated with exisulind as described previously are harvested from the microfuge tubes by rinsing once with ice-cold PBS. The cells are lysed by modified RIPA buffer for 15 minutes with agitation. The cell lysate is spun down in a cold room. The supernatants are transferred to fresh microcentrifuge tubes immediately after spinning. BioRad DC Protein Assay (Temecula, Calif.) is performed to determine the protein concentrations in samples. The samples are normalized for protein concentration, as described above.
50 μg of each sample is loaded to 10% SDS gel. SDS-PAGE is performed, and the proteins then are transferred to a nitrocellulose membrane. The blotted nitrocellulose membrane are blocked in freshly prepared TBST containing 5% nonfat dry milk for one hour at room temperature with constant agitation.
SW480 cells were treated with exisulind or vehicle (0.1% DMSO) for 48 hours. 50 μg supernatant of each cell lysates were loaded to 10% SDS-gel and blotted to nitrocellulose membrane, and the membrane was probed with rabbit-anti-β-catenin and rabbit anti-PKG antibodies.
This observation was made by culturing SW480 cells with either 200, 400 or 600 μM exisulind or vehicle (0.1% DMSO). The cells are harvested 48 hours post treatment and processed for immunoblotting. Immuno-reactive protein can be detected by Western blot. […]

[10] = test system: premalignant lesions in mouse mammary gland organ culture; assay: Mammary gland organ culture model; format: cell-based
Excerpt: Test compounds identified by the above methods can be tested for antineoplastic activity by their ability to inhibit the incidence of pre-neoplastic lesions in a mammary gland organ culture system. This mouse mammary gland organ culture technique has been successfully used by other investigators to study the effects of known antineoplastic agents such as certain NSAIDs, retinoids, tamoxifen, selenium, and certain natural products, and is useful for validation of the screening method of the present invention.
For example, female BALB/c mice can be treated with a combination of estradiol and progesterone daily, in order to prime the glands to be responsive to hormones in vitro. The animals are sacrificed, and thoracic mammary glands are excised aseptically and incubated for ten days in growth media supplemented with insulin, prolactin, hydrocortisone, and aldosterone. DMBA (7,12 dimethylbenz(a)anthracene) is added to medium to induce the formation of premalignant lesions. Fully developed glands are then deprived of prolactin, hydrocortisone, and aldosterone, resulting in the regression of the glands but not the pre-malignant lesions.
The test compound is dissolved in DMSO and added to the culture media for the duration of the culture period. At the end of the culture period, the glands are fixed in 10% formalin, stained with alum carmine, and mounted on glass slides. The incidence of forming mammary lesions is the ratio of the glands with mammary lesions to […]. The incidence of mammary lesions in test compound treated glands is compared with that of the untreated glands.
The extent of the area occupied by the mammary lesions can be quantitated by projecting an image of the gland onto a digitation pad. The area covered by the gland is traced on the pad and considered as 100% of the area. The space covered by each of the non-regressed structures is also outlined on the digitization pad and quantitated by the computer.
Mammary gland organ culture experiment were performed as previously described (Mehta and Moon, Cancer Research, 46:5832-5835, 1986). […]

- COX % Inhibition at 100 μM ([3]; 100 μM): <25%
Compound: CCN(CC)CCSC12CC(=O)OC1(C)/C(=C/c1ccc(S(C)(=O)=O)cc1)c1ccc(F)cc12 (racemic) [A, rac-threo-(E)-1-(N,N′-diethylaminoethanethio)-1-(butan-1′,4′-olido)-[3′,4′:1,2]-6-fluoro-2-methyl-3-(p-methylsulfonylbenzylidene)-indan]
- Growth % Inhibition at 100 μM (HT-29 cells): 68%
- cGMP PDE % Inhibition at 10 μM [1]: <25%
- Fold induction at 100 μM (apoptosis) [2]: <2.0 fold

Compound: CCCCCC[C@@H]([C@@H](C)O)n1cnc2c(N)ncnc21 (racemic) [EHNA]
- Fold induction at 100 μM (apoptosis) [4]: <2.0 fold

- sensitivity of peak B cGMP PDE activity [6]: resistant to 100 nM E4021
Compound: O=C([O-])C1CCN(c2nc(NCc3ccc4c(c3)OCO4)c3cc(Cl)ccc3n2)CC1.[Na+] [Compound E4021]
- competition with cGMP in binding of GST-cGB-PDE5 [5]: None of the PDE5 inhibitors showed any competition with cGMP
- Growth % Inhibition at 100 μM (HT-29 cells): <50%
- sensitivity of peak B cGMP PDE activity [7]: resistant to 100 nM E4021
- sensitivity of peak B cGMP PDE activity [8]: resistant to 100 nM E4021

Compound: CC1=C(CC(=O)O)c2cc(F)ccc2/C1=C\c1ccc(S(C)(=O)=O)cc1 [Exisulind, 5-fluoro-2-methyl-1-(p-methylsulfonylbenzylidene)-3-indenylacetic acid]
- dose-limiting adverse events (patients; human, in vivo): elevations in liver function tests (LFTs)
- safety issues in clinical trials (patients; human, in vivo): No outstanding safety issues have been demonstrated
- apoptosis rates in paired biopsies (patients; polyp and normal colonic tissues in APC patients): increased apoptosis rates in polyp, but not normal colonic tissues
- PKG activity relative to control [9]: PKG activation occurred
- competition with cGMP in binding of GST-cGB-PDE5 [5]: None of the PDE5 inhibitors showed any competition with cGMP
- cGMP PDE % Inhibition at 10 μM [1]: 39%
- reduction of expression of β-catenin (β-catenin in SW480 cells): 50%
- inhibition of formation of premalignant lesions [10]: effectively inhibit the formation of premalignant lesions
- IC50 [3]: > 10 mM
